According to a melting point compilation (Tetko et al.; mined from patent text by program, amines drawn as free bases though some values may be those of a salt):

`COC(=O)C(=O)CC(=O)c1cc(F)c(OC)c(F)c1` gave a melting point of 185 to 190 °C. Work on `O=C(c1ccc(O)cc1)c1cccc(O)c1` yielded a melting point of 200 to 201 °C. `CN1C(=O)C(C)(CCN2CCN(c3cccc4ccccc34)CC2)c2cc(F)ccc21` (stereo not drawn) gave a melting point of 144 to 146 °C. Work on `CN1CCN(c2ncnc3nc(-c4ccncc4)[nH]c23)CC1` yielded a melting point of 333 to 335 °C. Molecule `O=C(O)Cn1c(=O)c(=O)[nH]c2cc(Br)ccc21` has a melting point greater than 320 °C. Molecule `O=c1c(CCCc2ccncc2)cc2cccnc2n1-c1ccc2nsnc2c1` has a melting point of 194 to 196 °C. Work on `COc1ccc(C(=O)CCC(=O)O)cc1OC1CCCC1` yielded a melting point of 111 to 113 °C. With `COc1ccc(N2CCN(c3c(C)c(C)c4c(c3C)C(c3cccc5ccccc35)C(C)(C)O4)CC2)cc1` (stereo not drawn) the melting point was 165 to 166 °C. In the case of `CCC(C)C(CO)NC(=O)CC(O)C(CC(C)C)NC(=O)C(Cc1cscn1)NC(=O)C(Cc1cccc2ccccc12)NC(=O)OCc1ccccc1` (mixture of isomers), the melting point is reported as 167 to 169 °C. `Cc1cc(C2=NOC(c3cc(Cl)cc(Cl)c3)(C(F)(F)F)C2)ccc1F` (stereo not drawn) showed a melting point of 72 to 74 °C. In the case of `O=C(Nc1ccc(Oc2ccccc2)cc1)N1CCN(c2ccnc3c(Cl)cccc23)CC1`, the melting point is reported as 174 to 175 °C. With `COc1ccn2nc(-c3ccc(F)cc3)c(-c3ccc(=O)n(C)n3)c2c1` the melting point was 221 to 222 °C. In the case of `Cc1nnc(-c2ccc3occ(-c4ccc(C(=O)O)cc4Cl)c3c2)o1`, the melting point is reported as 267 to 268 °C. For `CN(C)CCOc1ccc(Nc2ncc3c(n2)N(C)C(=O)N(c2c(Cl)cccc2Cl)C3)cc1`, the melting point was 173 to 174 °C. With `COc1ccc(-c2cc(N3CCCCC3)c(C#N)c3c2-c2ccccc2C3)cc1` the melting point was 202 to 204 °C. Work on `CC(=O)COc1nc(N2CCCCC2)c2nc(OCC(C)=O)nc(N3CCCCC3)c2n1` yielded a melting point of 188 to 189 °C. Molecule `O=S(=O)(NCCCCOc1ccc(-n2ccnc2)cc1)c1ccc(Br)cc1` has a melting point of 134 to 136 °C. `O=C1N(Cc2ccc(Cl)o2)c2ccccc2C12COc1cc3c(cc12)OCO3` (stereo not drawn) gave a melting point of 148 to 150 °C. With `CCCC1CCC(C2(N=C=S)C=CC(CC)=CC2)CC1` (stereo not drawn) the melting point was 43 °C. `NS(=O)(=O)c1cc(C(=O)CBr)ccc1F` showed a melting point of 125 °C. `C#Cc1cccc(Oc2ccc([N+](=O)[O-])c([N+](=O)[O-])c2)c1` showed a melting point of 68 to 69 °C. `CC(C)NC(=O)n1nc(Oc2c(Cl)cc(C(F)(F)F)cc2Cl)cc1C(Cl)(Cl)Cl` showed a melting point of 105 to 106 °C. Molecule `O=C(NCCCCN1CCC(c2ccc3c(c2OCCO)CCCC3)CC1)c1sc(-c2ccc(C(F)(F)F)cc2)nc1CO` has a melting point of 157 to 159 °C. For `CCCC[C@H](NC(=O)[C@H](CC(C)C)NC(=O)c1ccc(C)cc1)C(=O)CSCc1ccco1`, the melting point was 122 to 123 °C. Molecule `CCCN(Cc1ccccc1)c1cccc(-c2nc(NC)nc3cc(OC)c(OC)cc23)c1` has a melting point of 75 to 77 °C. Molecule `COC(=O)CC[C@@H](Cc1cn(CCCc2ccccc2)c2ccccc12)NC(=O)CCCCCCc1ccccc1` has a melting point of 79.4 to 81 °C. In the case of `c1ccc2c(Cn3c(-c4ccc5c(c4)OCO5)nc4ccccc43)cccc2c1`, the melting point is reported as 166 to 168 °C. Work on `Cc1c(NC(=O)CC(C)(C)C)c(C)c2c(c1-c1cccc(N3CCCC3)c1)OCC2c1ccc(C(C)C)cc1` (stereo not drawn) yielded a melting point of 206 to 207 °C. `Nc1ccc(Cl)cc1C(=O)NCCCn1cncn1` showed a melting point of 116 to 118 °C. For `Cc1cn(-c2cc(N)cc(C(F)(F)F)c2)cn1`, the melting point was 123 to 124 °C. `CCc1nc2c(N)nc3cc(OCCc4c(C)n[nH]c4C)ccc3c2s1` gave a melting point of 195 to 197 °C. `CCCc1nncn1-c1ccc(O)cc1` showed a melting point of 176 °C. Molecule `COC(=O)C(C)(C)c1ccc2c(c1)c(=O)[nH]c(=O)n2CCCCBr` has a melting point of 164 to 165 °C. Molecule `COc1cc(N)cc(OC)c1-c1ccc(C[C@H](NC(=O)c2c(Cl)cccc2Cl)C(=O)O)cc1` has a melting point of 221 to 222 °C. In the case of `COCc1cc(C(C)(C)C)cc(C(C)(C)C)c1O`, the melting point is reported as 36 to 39 °C. With `N#CC1=C(Nc2ccccc2N)CSC1` the melting point was 163 °C. `COc1cccc2c1CCCC2N` (stereo not drawn) gave a melting point of 22 to 25 °C. With `CC(=O)OC1CSC(Oc2cc(-c3cncnc3)cnc2Cl)C(OC(C)=O)C1OC(C)=O` (stereo not drawn) the melting point was 72 to 90 °C.
